Source: patent US20130029928A1 (priority 2010, published 2013)
Read-outs that look alike come from different tables or passages of the source.

Experiment: Phase I study CXR1002-001: plasma pharmacokinetics (LC-MS/MS)
Assay type: in vivo, human
Conditions: human, plasma, oral, person, plasma; for concentration at 24 h: 24 hr (Day 2); for concentration at 168 h: 168 hr (Day 8); for concentration at 336 h: 336 hr (Day 15); for concentration at 360 h: 360 hr (Day 16); for concentration at 504 h: 504 hr (Day 22); for concentration at 672 h: 672 hr (Day 29); for concentration at 696 h: 696 hr (Day 30); for concentration at 840 h: 840 hr (Day 36)
Source text: PK samples, PD (fasting) samples, blood glucose, and blood triglyceride samples, were taken over a 6-week period.
Dose limiting toxicity (DLT) will be based on the toxicity assessments over the first 3-week period of the repeat dosing schedule. PK samples (single blood sample) were taken on the following basis: • Every 6 weeks during the repeat dosing phase • If dosing is interrupted or stopped, samples will be taken at intervals according to patient convenience • PK sampling for safety evaluation may take place at any time, as clinically indicated
Plasma samples were collected after the single 50 mg dose at the following timepoints: Pre-dose, and then 0.25, 0.5, 0.75, 1, 1.5, 2, 3, 4, 6, 24, 48, and 72 hours after administration and then once weekly at weeks 2, 3, 4, 5, and 6 (days 8, 15, 22, 29, and 36). For patients treated with the weekly repeat dose, plasma samples were collected at the following timepoints: Pre-dose and then 2, 3, 4 and 24 hours after administration for a total of 6 weeks. Thereafter a single sample was collected every 6 weeks for monitoring of exposure during long term treatment. Plasma samples were processed at site and stored at −80° C. prior to batch shipment to the analytical laboratory.

[1] = 1000 mg, Patient 040, 1000 mg, read-out: Concentration
[2] = 1200 mg, Patient 033, 1200 mg, read-out: Concentration

Work on O=C(O)C(F)(F)C(F)(F)C(F)(F)C(F)(F)C(F)(F)C(F)(F)C(F)(F)F [CXR1002] yielded a concentration at 4 h [1] of 190 µM, a concentration at 24 h [1] of 148 µM and a concentration at 168 h [1] of 120 µM. It also gave a concentration at 170 h [1] of 368 µM, a concentration at 171 h [1] of 343 µM and a concentration at 172 h (1000 mg, Patient 040, 1000 mg, 172 hr, read-out: Concentration) of 326 µM. The concentration at 192 h (1000 mg, Patient 040, 1000 mg, 192 hr (Day 9), read-out: Concentration) was 272 µM, the concentration at 336 h [1] was 305 µM and the concentration at 338 h [1] was 487 µM. The concentration at 339 h [1] was 427 µM, the concentration at 340 h [1] was 476 µM and the concentration at 360 h [1] was 485 µM. For the same molecule, the concentration at 504 h [1] was 353 µM, the concentration at 506 h [1] was 502 µM and the concentration at 507 h (1000 mg, Patient 040, 1000 mg, 507 hr, read-out: Concentration) was 554 µM. The concentration at 508 h (1000 mg, Patient 040, 1000 mg, 508 hr, read-out: Concentration) was 515 µM, the concentration at 528 h (1000 mg, Patient 040, 1000 mg, 528 hr (Day 23), read-out: Concentration) was 525 µM and the concentration at 672 h [1] was 490 µM. It also gave a concentration at 674 h [1] of 558 µM, a concentration at 675 h [1] of 533 µM and a concentration at 676 h [1] of 607 µM. The concentration at 696 h [1] was 697 µM, the concentration at 840 h [1] was 574 µM and the concentration at 842 h [1] was 626 µM. The concentration at 843 h (1000 mg, Patient 040, 1000 mg, 843 hr, read-out: Concentration) was 748 µM, the concentration at 864 h (1000 mg, Patient 040, 1000 mg, 864 hr (Day 37), read-out: Concentration) was 826 µM and the concentration at 0 h (1200 mg, Patient 033, 1200 mg, 0 hr (pre-dose)) was 0 nM. For the same molecule, the concentration at 2 h (1200 mg, Patient 033, 1200 mg, 2 hr, read-out: Concentration) was 441 µM, the concentration at 3 h (1200 mg, Patient 033, 1200 mg, 3 hr, read-out: Concentration) was 396 µM and the concentration at 4 h [2] was 374 µM. It also gave a concentration at 24 h [2] of 371 µM, a concentration at 168 h [2] of 317 µM and a concentration at 170 h [2] of 735 µM. For the same molecule, the concentration at 171 h [2] was 657 µM, the concentration at 172 hr (1200 mg, Patient 033, 1200 mg, 172 hr, read-out: Concentration) was 637 µM and the concentration at 192 hr (1200 mg, Patient 033, 1200 mg, 192 hr (Day 9), read-out: Concentration) was 591 µM. The concentration at 336 h [2] was 637 µM, the concentration at 338 h [2] was 926 µM and the concentration at 339 h [2] was 841 µM. It also gave a concentration at 340 h [2] of 817 µM, a concentration at 360 h [2] of 915 µM and a concentration at 504 h [2] of 713 µM. For the same molecule, the concentration at 506 h [2] was 1150 µM, the concentration at 507 hr (1200 mg, Patient 033, 1200 mg, 507 hr, read-out: Concentration) was 1060 µM and the concentration at 508 hr (1200 mg, Patient 033, 1200 mg, 508 hr, read-out: Concentration) was 1010 µM. The concentration at 672 h [2] was 1020 µM, the concentration at 674 h [2] was 1230 µM and the concentration at 675 h [2] was 1110 µM. It also gave a concentration at 676 h [2] of 1100 µM, a concentration at 696 h [2] of 1110 µM and a concentration at 840 h [2] of 1040 µM. For the same molecule, the concentration at 842 h [2] was 1110 µM, the concentration at 843 hr (1200 mg, Patient 033, 1200 mg, 843 hr, read-out: Concentration) was 1230 µM and the concentration at 844 hr (1200 mg, Patient 033, 1200 mg, 844 hr, read-out: Concentration) was 1200 µM. For the same molecule, the concentration at 864 hr (1200 mg, Patient 033, 1200 mg, 864 hr (Day 37), read-out: Concentration) was 1320 µM, the concentration at 2 hr (1200 mg, Patient 034, 1200 mg, 2 hr, read-out: Concentration) was 440 µM and the concentration at 3 hr (1200 mg, Patient 034, 1200 mg, 3 hr, read-out: Concentration) was 401 µM.
